Experimental data taken from the supplement of paper PMC13380429.

How the values were obtained:
Details in all cases: 72 h
[1] = test system: U2OS; test: drug sensitivity score (DSS) for viability; higher = more toxic; extreme values may be limits of the assay
[2] = test system: Calu-3; test: as above
[3] = test system: Caco-2; test: as above
[4] = test system: Vero E6; test: as above
[5] = test system: HepG2; test: as above
[6] = test system: U2OS; test: cell viability relative to DMSO; higher = less toxic
[7] = test system: Calu-3; test: as above
[8] = test system: Caco-2; test: as above
[9] = test system: Vero E6; test: as above
[10] = test system: HepG2; test: as above
[11] = test system: U2OS; test: relative viability EC50 (midpoint between 100% and the lowest measured viability); higher = less toxic
[12] = test system: Calu-3; test: as above
[13] = test system: Caco-2; test: as above
[14] = test system: Vero E6; test: as above
[15] = test system: HepG2; test: as above

Row | Structure (SMILES) | drug sensitivity score [1] | drug sensitivity score [2] | drug sensitivity score [3] | drug sensitivity score [4] | drug sensitivity score [5] | cell viability ([6]; 1 nM) [%] | cell viability ([6]; 10 nM) [%] | cell viability ([6]; 100 nM) [%] | cell viability ([6]; 1000 nM) [%] | cell viability ([6]; 10000 nM) [%] | cell viability ([7]; 1 nM) [%] | cell viability ([7]; 10 nM) [%] | cell viability ([7]; 100 nM) [%] | cell viability ([7]; 1000 nM) [%] | cell viability ([7]; 10000 nM) [%] | cell viability ([8]; 1 nM) [%] | cell viability ([8]; 10 nM) [%] | cell viability ([8]; 100 nM) [%] | cell viability ([8]; 1000 nM) [%] | cell viability ([8]; 10000 nM) [%] | cell viability ([9]; 1 nM) [%] | cell viability ([9]; 10 nM) [%] | cell viability ([9]; 100 nM) [%] | cell viability ([9]; 1000 nM) [%] | cell viability ([9]; 10000 nM) [%] | cell viability ([10]; 1 nM) [%] | cell viability ([10]; 10 nM) [%] | cell viability ([10]; 100 nM) [%] | cell viability ([10]; 1000 nM) [%] | cell viability ([10]; 10000 nM) [%] | relative viability EC50 [11] [µM] | relative viability EC50 [12] [µM] | relative viability EC50 [13] [µM] | relative viability EC50 [14] [µM] | relative viability EC50 [15] [µM]
1 | CCOc1ccn(-c2ccc(F)cc2)c(=O)c1C(=O)Nc1ccc(Oc2ccnc(N)c2Cl)c(F)c1 | 0 | 0 | 0.8 | 0.6 | 1.9 | 102 | 98.4 | 103 | 99.2 | 98 | 93.5 | 103 | 101 | 96.1 | 94 | 101 | 90.4 | 90.3 | 103 | 75.1 | 103 | 99.1 | 101 | 98.8 | 81.5 | 110 | 116 | 108 | 96.9 | 68.5 | > 10 | > 10 | > 10 | > 10 | –
2 | CCc1cccc(CC)c1NC(=O)N1Cc2[nH]nc(NC(=O)c3ccc(N4CCN(C)CC4)cc3)c2C1 | 4.4 | 2.6 | 1.7 | 0 | 5.9 | 102 | 97.8 | 95.4 | 93.1 | 40 | 99.1 | 93.4 | 87.6 | 95 | 63 | 101 | 104 | 98.7 | 91.8 | 76.8 | 96.9 | 97.5 | 96.9 | 95.9 | 89.3 | 102 | 97.5 | 93.9 | 70.5 | 58.3 | 2.22 | – | > 10 | > 10 | –
3 | COc1ccc2[nH]c(C(=O)c3ccccc3)cc2c1 | 12.7 | 6.8 | 14.9 | 15.3 | 12.4 | 96.5 | 99.9 | 91.5 | 37.3 | 23.3 | 107 | 104 | 89.3 | 67.8 | 56.2 | 95 | 108 | 62.1 | 55.4 | 43.2 | 95.1 | 97.9 | 79.6 | 30.5 | 26.6 | 99.2 | 92.7 | 94.8 | 36.4 | 29.6 | 0.383 | – | 0.0765 | 0.178 | 0.338
4 | COc1ccc2c(c1)C=C1Cn3c-2c(C2CCCCC2)c2ccc(cc23)C(=O)NS(=O)(=O)N(C)CCOCCN(C)C1=O | 0 | – | 0 | 0 | 0 | 102 | 100 | 95.8 | 96.5 | 95.3 | – | – | – | – | – | 93.7 | 91.1 | 99 | 102 | 94.2 | 101 | 97.3 | 96.3 | 102 | 95.3 | 97.3 | 93.5 | 106 | 97 | 105 | > 10 | – | > 10 | > 10 | > 10
5 | Cc1cccc(NC(=O)N[C@@H]2N=C(c3ccccc3)c3ccccc3N(C)C2=O)c1 | – | – | 0 | 0 | 0 | – | – | – | – | – | – | – | – | – | – | 105 | 106 | 100 | 110 | 97.2 | 111 | 102 | 109 | 101 | 93.6 | 111 | 109 | 110 | 106 | 92.5 | – | – | > 10 | > 10 | > 10
6 | C[C@@H](CN(C)C)CN1c2ccccc2Sc2ccccc21 (racemic) [alimemazine] | 0 | 0.2 | 0.3 | 1.9 | 1 | 103 | 95 | 103 | 97 | 94.3 | 97.5 | 94.8 | 101 | 105 | 83.4 | 112 | 100 | 97.8 | 108 | 80.4 | 100 | 98.1 | 99.4 | 88.9 | 77.2 | 105 | 101 | 104 | 104 | 70.9 | > 10 | > 10 | > 10 | > 10 | –
7 | O=C1NC(=O)C(=Cc2ccc(-c3ccc(F)cc3)o2)S1 (stereo in doubt) | 0 | – | 0 | 0.1 | 0 | 95.3 | 98.5 | 99.9 | 97.5 | 98.1 | – | – | – | – | – | 99.2 | 97.9 | 104 | 95.3 | 90.4 | 97.7 | 102 | 95.8 | 91.5 | 89.1 | 104 | 111 | 99.4 | 94 | 100 | > 10 | – | > 10 | > 10 | > 10
8 | Cl/C=C\C[N+]12CN3CN(CN(C3)C1)C2 [1-((Z)-3-chloroallyl)-1,3,5,7-tetraazaadamantan-1-ium] | 0 | – | 0 | 0 | 0 | 94.5 | 99.8 | 94.7 | 102 | 97.5 | – | – | – | – | – | 96.3 | 97.9 | 91.5 | 97.4 | 95.8 | 99.5 | 99 | 99.4 | 95.5 | 104 | 102 | 104 | 109 | 102 | 97.7 | > 10 | – | > 10 | > 10 | > 10
9 | CC(C)(C)n1nc(-c2cccc3ccccc23)c2c(N)ncnc21 [1-naphthyl-PP1] | 1.7 | 1.1 | 0.1 | 0.4 | 0.2 | 100 | 96.4 | 109 | 94.4 | 75.6 | 91.6 | 104 | 98.4 | 100 | 73 | 104 | 93.1 | 98.6 | 101 | 86.1 | 107 | 99 | 103 | 110 | 78.6 | 115 | 115 | 95.6 | 105 | 82.8 | > 10 | – | > 10 | > 10 | > 10
10 | O=c1cc[nH]c(=S)[nH]1 [2-thiouracil] | 0 | 0 | 0 | 0 | – | 98.5 | 96.4 | 99.7 | 97.5 | 98.6 | 102 | 110 | 95.2 | 95.7 | 100 | 111 | 85.8 | 97.1 | 99 | 102 | 108 | 98.6 | 99.5 | 108 | 93.8 | – | – | – | – | – | > 10 | > 10 | > 10 | > 10 | –
11 | N#Cc1c(N)nc(SCC(N)=O)c(C#N)c1-c1ccc(OCC2CC2)cc1 [BAY-60-6583] | 0 | – | 0 | 0 | 0 | 106 | 100 | 101 | 98.7 | 99.4 | – | – | – | – | – | 104 | 102 | 102 | 95.9 | 99.1 | 99.4 | 94.7 | 93.3 | 96.6 | 93.7 | 102 | 98.1 | 101 | 102 | 92.6 | > 10 | – | > 10 | > 10 | > 10
12 | Cc1cc(C)c(S(=O)(=O)n2cc(C)cc2C)c(C)c1 [HJC-0350] | 0 | 0 | 0 | 0 | – | 97.4 | 98.2 | 102 | 106 | 93.4 | 93.7 | 99.4 | 92.9 | 103 | 96.5 | 95.5 | 98.2 | 93.6 | 96.6 | 93.2 | 97.5 | 99.5 | 98.6 | 95.5 | 96.2 | – | – | – | – | – | > 10 | > 10 | > 10 | > 10 | –
13 | Cc1noc(C)c1-c1cc(O)cc([C@@H](O)c2ccccc2)c1 [OXF-BD-02] | 3.9 | 1.8 | 1.3 | 8 | 2.3 | 97.2 | 94.2 | 99.7 | 86.9 | 59.3 | 98.9 | 95.2 | 99.8 | 96.8 | 70.8 | 100 | 92 | 99.3 | 92.5 | 80.3 | 102 | 103 | 94.6 | 76.9 | 17 | 107 | 104 | 98.6 | 101 | 54.4 | – | – | > 10 | 1.48 | –
14 | COc1cc(OCc2cccc(-c3ccccc3)c2C)cc(OC)c1CN1CCCC[C@H]1C(=O)O [PD1-PDL-inhibitor-1] | 0 | 0 | 0 | 0 | – | 99.3 | 98.7 | 101 | 99 | 95.8 | 98.2 | 99.1 | 98.1 | 102 | 102 | 104 | 94.5 | 94.4 | 96.3 | 102 | 99.5 | 106 | 99.3 | 105 | 103 | – | – | – | – | – | > 10 | > 10 | > 10 | > 10 | –
15 | COc1cc2c(cc1F)C(c1ccccc1Cl)=Nc1c(n[nH]c1C)N2 [RG1530] | 3.1 | 4 | 3.5 | 1.1 | 7.5 | 101 | 95.8 | 99.5 | 85.8 | 68.6 | 111 | 100 | 98.7 | 90.5 | 52.8 | 94.8 | 90.8 | 89.1 | 81.4 | 76.1 | 101 | 99 | 99.6 | 92.5 | 82.1 | 98.5 | 98.5 | 93.9 | 63.2 | 77.6 | – | – | > 10 | > 10 | –
16 | CN(C)c1ccc(/C=C2\C(=O)Nc3ccccc32)cc1 [SU4312] | 0 | 0 | 1.2 | 0 | 2 | 99.3 | 105 | 94.8 | 96.9 | 90 | 97.7 | 94.3 | 96.4 | 88.4 | 91.8 | 96.3 | 106 | 97.5 | 90.6 | 79.6 | 106 | 99.6 | 103 | 103 | 89.3 | 96 | 92.4 | 95.1 | 69.5 | 89.7 | > 10 | > 10 | > 10 | > 10 | –
